# Where two headings read alike, the source gives them in different places.
# Legend:
# Assay type in all cases: cell-based
# S. aureus 6538 = experiment: Synergy test, microtiter plate high resolution MIC assay, bacterium; details: S. aureus 6538, TSB
# Source text: (§1) One measure of synergism is the industrially accepted method described by Kull, F. C.; Eisman, P. C.; Sylwestrowicz, H. D. and Mayer, R. L., in Applied Microbiology 9:538-541 (1961), using the ratio determined by the formula: Qa/QA+Qb/QB=Synergy Index (“SI”) wherein: • QA=concentration of compound A (first component) in ppm, acting alone, which produced an end point (MIC of Compound A). • Qa=concentration of compound A in ppm, in the mixture, which produced an end point. • QB=concentration of compound B (second component) in ppm, acting alone, which produced an end point (MIC of Compound B). • Qb=concentration of compound B in ppm, in the mixture, which produced an end point.
# (§2) When the sum of Qa/QA and Qb/QB is greater than one, antagonism is indicated. […] The lower the SI, the greater the synergy shown by that particular mixture. The minimum inhibitory concentration (MIC) of a microbicide is the lowest concentration tested under a specific set of conditions that prevents the growth of added microorganisms.
# (§3) Synergy tests were conducted using standard microtiter plate assays with media designed for optimal growth of the test microorganism. Soybean Casein Digest Broth (Tryptic Soy Broth, TSB medium) or minimal salt medium supplemented with 0.2% glucose and 0.1% yeast extract (M9GY medium) was used for testing bacteria; Potato Dextrose Broth (PDB medium) was used for testing yeast and mold. In this method, a wide range of combinations of microbicides was tested by conducting high resolution MIC assays in the presence of various concentrations of MI. High resolution MICs were determined by adding varying amounts of microbicide to one column of a microtitre plate and doing subsequent ten-fold dilutions using an automated liquid handling system to obtain a series of endpoints ranging from 2 ppm to 10,000 ppm active ingredient.
# [1] = tested on: Candida albicans (C. albicans—ATCC 10231); experiment: Synergy test, microtiter plate high resolution MIC assay, yeast; details: C. albicans 10231, PDB; for MIC: Candida albicans, ATCC10231; for Qb: alone or mixed with BIT
# Source text: as §1, §2, §3
# (§4) For MI combinations, the synergy of the combinations of the present invention was determined against two bacteria, Escherichia coli (E. coli—ATCC #8739) or Pseudomonas aeruginosa (P. aeruginosa—ATCC #15442), a yeast, Candida albicans (C. albicans—ATCC 10231), and a mold, Aspergillus niger (A. niger—ATCC 16404). The bacteria were used at a concentration of about 5×10^6 bacteria per mL and the yeast and mold at 5×10^5 fungi per mL. These microorganisms are representative of natural contaminants in many consumer and industrial applications. […] (bacteria).
# (§5) For BIT combinations, the synergy of the combinations of the present invention was determined against a bacterium, Pseudomonas aeruginosa (P. aeruginosa—ATCC #15442), a yeast, Candida albicans (C. albicans—ATCC 10231), and a mold, Aspergillus niger (A. niger—ATCC 16404). The bacteria were used at a concentration of about 5×10^6 bacteria per mL and the yeast and mold at 5×10^5 fungi per mL. These microorganisms are representative of natural contaminants in many consumer and industrial applications. […] (yeast and mold) or 30° C. (bacteria).
# [2] = tested on: Pseudomonas aeruginosa (P. aeruginosa—ATCC #15442); experiment: Synergy test, microtiter plate high resolution MIC assay, bacterium; parameters: key to SI (calculated synergy index) / SI (synergy index): SI = Qa/QA + Qb/QB (mixture vs. alone end-point concentrations); details: for MIC: Pseudomonas aeruginosa, ATCC15442; for Qb: alone or mixed with BIT; for SI (calculated synergy index) / Qb: end-point activity (MIC) of second component in the mixture (alone, QB, where Qa = 0): Table 6; for Qb: end-point activity (MIC) of second component in the mixture (alone, QB, where Qa = 0): B = Cocamidopropyl PG-dimonium chloride phosphate
# Source text: as §1, §2, §3, §4, §5
# [3] = tested on: Escherichia coli (E. coli—ATCC #8739); experiment: as above; details: E. coli 8739, M9GY; for Qb: alone or mixed with BIT
# Source text: as §1, §2
# as §3, with “In this method, a wide range of combinations of microbicides was tested by conducting high resolution MIC assays in the presence of various concentrations of MI.” left out
# as §4
# [4] = tested on: Aspergillus niger (A. niger—ATCC 16404); experiment: Synergy test, microtiter plate high resolution MIC assay, mold; parameters: key to SI (calculated synergy index) / SI (synergy index): SI = Qa/QA + Qb/QB (mixture vs. alone end-point concentrations); details: A. niger 16404, PDB; for MIC: Aspergillus niger, ATCC16404, 72 h
# Source text: as §1, §2, §3, §4, §5
# [5] = glutaraldehyde concentration giving end point (MIC), 24 hours
# [6] = synergy index BIT + glutaraldehyde, 24 hours
# [7] = Table 6, 24 hours, B = Cocamidopropyl PG-dimonium chloride phosphate
# [8] = P. aeruginosa 15442, M9GY, 72 hours
# [9] = P. aeruginosa 15442, TSB, 48 hours
compound,measurement,setting,value
N=C(N)c1ccc(OCCCCCCOc2ccc(C(=N)N)cc2)cc1.O=S(=O)(O)CCO.O=S(=O)(O)CCO [Hexamidine diisethionate],MIC of component acting alone (QA / QB),S. aureus 6538; 72 hours,4000 ppm
same,MIC of component acting alone (QA / QB),[1]; 48 hours,2000 ppm
same,MIC of component acting alone (QA / QB),"[2]; P. aeruginosa 15442, TSB, 72 hours",2000 ppm
CCCCC(CC)CN1CN(CC(CC)CCCC)CC(C)(N)C1 (stereo not shown) [Hexetidine],MIC,"S. aureus 6538; Staphylococcus aureus, 48 hours, read-out: MIC of component acting alone (QA / QB)",4 µg/mL
same,MIC,"[1]; 72 hours, read-out: MIC of component acting alone (QA / QB)",2000 µg/mL
same,MIC,"[2]; P. aeruginosa 15442, TSB, 24 hours, read-out: MIC of component acting alone (QA / QB)",10000 µg/mL
"Cl/C=C\C[N+]12CN3CN(CN(C3)C1)C2.[Cl-] [cis-1-(3-chloroallyl)-3,5,7-triaza-1-azoniaadamantane chloride]",MIC,"[3]; Escherichia coli, ATCC8739, Table 24, Cis-1-(3-chloroallyl)-3,5,7-triaza-1-azoniaadamantane chloride with BIT, 48 hours, alone where Qa = 0, read-out: Qb (second component at end point, MIC)",400 µg/mL
same,SI (synergy index),"[3]; Table 24, 48 hours",1.00
same,MIC,"[4]; Table 24, Cis-1-(3-chloroallyl)-3,5,7-triaza-1-azoniaadamantane chloride with BIT, 3 days, alone where Qa = 0, read-out: Qb (second component at end point, MIC)",800 µg/mL
same,SI (synergy index),"[4]; Table 24, 3 days",1.00
same,MIC,"[1]; Table 24, Cis-1-(3-chloroallyl)-3,5,7-triaza-1-azoniaadamantane chloride with BIT, 24 hours, alone where Qa = 0, read-out: Qb (second component at end point, MIC)",800 µg/mL
same,SI (synergy index),"[1]; Table 24, 24 hours",1.00
same,MIC,"[2]; Table 24, Cis-1-(3-chloroallyl)-3,5,7-triaza-1-azoniaadamantane chloride with BIT, P. aeruginosa 15442, M9GY, 24 hours, alone where Qa = 0, read-out: Qb (second component at end point, MIC)",400 µg/mL
same,SI (synergy index),"[2]; Table 24, P. aeruginosa 15442, M9GY, 24 hours",1.00
O=CCCCC=O [glutaraldehyde],Qb,[3]; [5],50 ppm
same,SI,[3]; [6],1.00
same,MIC,"[4]; glutaraldehyde concentration giving end point (MIC), alone or mixed with BIT, 3 days, read-out: Qb",400 µg/mL
same,SI,"[4]; synergy index BIT + glutaraldehyde, 3 days",1.00
same,Qb,[1]; [5],30 ppm
same,SI,[1]; [6],1.00
same,Qb,"[2]; glutaraldehyde concentration giving end point (MIC), P. aeruginosa 15442, M9GY, 48 hours",60 ppm
same,SI,"[2]; synergy index BIT + glutaraldehyde, P. aeruginosa 15442, M9GY, 48 hours",1.00
O=C([O-])c1ccccc1.[Na+] [sodium benzoate],SI (synergy index),"[3]; Table 26, 24 hours",1.00
same,"Qb (second component at end point, MIC)","[3]; Table 26, sodium benzoate with BIT, 24 hours, alone where Qa = 0",10000 ppm
same,SI (synergy index),"[4]; Table 26, 1 week",1.00
same,"Qb (second component at end point, MIC)","[4]; Table 26, sodium benzoate with BIT, 1 week, alone where Qa = 0",6000 ppm
same,SI (synergy index),"[1]; Table 26, 48 hours",1.00
same,"Qb (second component at end point, MIC)","[1]; Table 26, sodium benzoate with BIT, 48 hours, alone where Qa = 0",2000 ppm
same,SI (synergy index),"[2]; Table 26, P. aeruginosa 15442, M9GY, 24 hours",1.00
same,"Qb (second component at end point, MIC)","[2]; Table 26, sodium benzoate with BIT, P. aeruginosa 15442, M9GY, 24 hours, alone where Qa = 0",10000 ppm
Cocamidopropyl PG-dimonium chloride phosphate,SI (calculated synergy index),"[4]; Table 6, 4 days",1.00
same,"Qb: end-point activity (MIC) of second component in the mixture (alone, QB, where Qa = 0)","[4]; Table 6, 4 days, B = Cocamidopropyl PG-dimonium chloride phosphate",1000 ppm
same,SI (synergy index),"[4]; Table 22, 1 week",1.00
same,"Qb (second component at end point, MIC)","[4]; Table 22, Cocamidopropyl PG-dimonium chloride phosphate with BIT, 1 week, alone where Qa = 0",3000 ppm
same,SI (calculated synergy index),"S. aureus 6538; Table 6, 24 hours",1.00
same,"Qb: end-point activity (MIC) of second component in the mixture (alone, QB, where Qa = 0)",S. aureus 6538; [7],30 ppm
same,SI (calculated synergy index),"[1]; Table 6, 24 hours",1.00
same,"Qb: end-point activity (MIC) of second component in the mixture (alone, QB, where Qa = 0)",[1]; [7],100 ppm
same,SI (calculated synergy index),[2]; [8],1.00
same,"Qb: end-point activity (MIC) of second component in the mixture (alone, QB, where Qa = 0)",[2]; [8],30 ppm
same,SI (calculated synergy index),[2]; [9],1.00
same,"Qb: end-point activity (MIC) of second component in the mixture (alone, QB, where Qa = 0)",[2]; [9],1000 ppm
same,"Qb (second component at end point, MIC)","[2]; Table 22, Cocamidopropyl PG-dimonium chloride phosphate with BIT, P. aeruginosa 15442, M9GY, 72 hours, alone where Qa = 0",40 ppm
same,SI (synergy index),"[2]; Table 22, P. aeruginosa 15442, M9GY, 72 hours",1.00
imidazolidinyl urea [Imidalozidinyl urea],Qb,"[3]; Imidalozidinyl urea concentration giving end point (MIC), 48 hours",400 ppm
same,SI,"[3]; synergy index BIT + Imidalozidinyl urea, 48 hours",1.00
same,Qb,"[4]; Imidalozidinyl urea concentration giving end point (MIC), alone or mixed with BIT, 3 days",8000 ppm
same,SI,"[4]; synergy index BIT + Imidalozidinyl urea, 3 days",1.00
same,Qb,"[1]; Imidalozidinyl urea concentration giving end point (MIC), 24 hours",10000 ppm
same,SI,"[1]; synergy index BIT + Imidalozidinyl urea, 24 hours",1.00
same,Qb,"[2]; Imidalozidinyl urea concentration giving end point (MIC), P. aeruginosa 15442, M9GY, 48 hours",400 ppm
same,SI,"[2]; synergy index BIT + Imidalozidinyl urea, P. aeruginosa 15442, M9GY, 48 hours",1.00

# Source: patent US7468384B2, “Microbicidal composition” (Rohm and Haas Company, priority 2004, dated 2008)
